Structures can show the parent of a compound that is named as a salt. Where two headings read alike, the source gives them in different places.
Test system: ATGL-KO iPSCs
Test: High throughput iPSC chemical screening, Oil Red O (ORO) lipid accumulation; for Z-score: test concentration or dose not given here
Type: cell-based, mouse
[1] = normalized ORO level vs DMSO-treated cells, compound present during 7 days differentiation, 96-well, negative = decrease in lipid accumulation

| Compound | Z-score [1] | further results |
| --- | --- | --- |
| NC(=O)N/N=C/c1ccc([N+](=O)[O-])o1 [Nitrofural] | −0.866 |  |
| CC(C)C(=O)Nc1ccc([N+](=O)[O-])c(C(F)(F)F)c1 [Flutamide] | −0.5472 |  |
| CC(C)(O/N=C(\C(=O)N[C@@H]1C(=O)N2C(C(=O)[O-])=C(C[n+]3ccccc3)CS[C@H]12)c1csc(N)n1)C(=O)O [Ceftazidime pentahydrate] | 0.00611 |  |
| Cc1cn([C@H]2C[C@H](N=[N+]=[N-])[C@@H](CO)O2)c(=O)[nH]c1=O [Zidovudine, AZT] | −0.4063 |  |
| Cc1cc(C(C)(C)C)cc(C)c1CC1=NCCN1 [Xylometazoline hydrochloride] | 0.7686 |  |
| COc1cc(CNC(=O)CCCC/C=C/C(C)C)ccc1O [Capsaicin] | 0.3383 |  |
| CN1CCC2=C[C@H](O)[C@H]3OC(=O)c4cc5c(cc4[C@H]3[C@@H]21)OCO5 [Hippeastrine hydrobromide] | −1.1441 |  |
| CC(C)[N+](C)(CCC(C(N)=O)(c1ccccc1)c1ccccc1)C(C)C [Isopropamide iodide] | −0.2928 |  |
| COc1ccccc1N1CCN(CCCNc2cc(=O)n(C)c(=O)n2C)CC1 [Urapidil hydrochloride] | −1.2828 |  |
| Dihydroergotamine tartrate | −0.7032 |  |
| COc1ccc(C(=O)OC2C[C@H]3CC[C@@H](C2)N3C)cc1OC.Cl (stereo partly shown) [Convolamine hydrochloride] | −1.0829 |  |
| CCCSc1ccc2nc(NC(=O)OC)[nH]c2c1 [Albendazole] | 41.6509 |  |
| CC(COc1ccccc1)NC(C)C(O)c1ccc(O)cc1 (stereo not shown) [Isoxsuprine hydrochloride] | 0.3014 |  |
| CCN(CC)CCNC(=O)c1ccc(N)cc1 [Procainamide hydrochloride] | −0.2319 |  |
| C=C1[C@@H]2CC[C@H]3[C@]4(C)C[C@H](O[C@@H]5O[C@H](CO)[C@@H](OS(=O)(=O)O)[C@H](OS(=O)(=O)O)[C@H]5OC(=O)CC(C)C)C[C@@H](C(=O)O)[C@H]4CC[C@]3(C2)[C@@H]1O [Atractyloside potassium salt] | −0.3937 |  |
| COC1=CC(=O)C[C@@H](C)[C@]12Oc1c(Cl)c(OC)cc(OC)c1C2=O [Griseofulvin] | 0.2728 |  |
| O=c1ccc2cc(O)c(O)cc2o1 [Esculetin] | −0.9295 |  |
| CC1(C)NC(=O)N(c2ccc([N+](=O)[O-])c(C(F)(F)F)c2)C1=O [Nilutamide] | −1.5582 |  |
| CN(Cc1cnc2nc(N)nc(N)c2n1)c1ccc(C(=O)N[C@@H](CCC(=O)O)C(=O)O)cc1 (racemic) [Amethopterin (R,S)] | 15.6786 |  |
| Cc1cc(=O)n(-c2ccccc2)n1C [Antipyrine] | −0.2127 |  |
| CC(=O)N(CC(O)CO)c1c(I)c(C(=O)NCC(O)CO)c(I)c(C(=O)NCC(O)CO)c1I (stereo not shown) [Iohexol] | −1.1016 |  |
| C[N+]1(C)CCC[C@H]1C(=O)[O-].Cl [Stachydrine hydrochloride] | 0.2248 |  |
| O=C1NCCN1c1ncc([N+](=O)[O-])s1 [Niridazole] | 1.446 |  |
| C=C1[C@H]2C[C@@]3([C@@H]1O)[C@@H](C[C@@H]2O)[C@]12[C@@H]4C[C@H]3[C@H]1N(CC)C[C@]4(C)CC[C@@H]2O [Napelline] | −1.869 |  |

| Compound | Z-score [1] | further results |
| --- | --- | --- |
| COC(=O)Nc1nc2ccc(SC(C)C)cc2[nH]1 [Methiazole] | 19.8245 |  |
| C[N+]1(C)CCOC(O)(c2ccc(-c3ccc(C4(O)C[N+](C)(C)CCO4)cc3)cc2)C1.[Br-].[Br-] (stereo not shown) [Hemicholinium bromide] | 2.91 |  |
| CC[N+](CC)(CC)CCC(O)(c1ccccc1)C1CCCCC1.[Cl-] (stereo not shown) [Tridihexethyl chloride] | 0.01977 |  |
| C[C@]12C=CC(=O)C=C1CC[C@@H]1[C@@H]2C(=O)C[C@@]2(C)[C@H]1CC[C@]2(O)C(=O)CO [Prednisone] | 0.05393 |  |
| COc1cccc2c1C(=O)c1c(O)c3c(c(O)c1C2=O)C[C@@](O)(C(=O)CO)C[C@@H]3O[C@H]1C[C@H](N)[C@H](O)[C@H](C)O1 [Doxorubicin hydrochloride] | 32.6438 |  |
| Carbinoxamine maleate salt | 0.218 |  |
| CC(C)C[C@H]1C(=O)N2CCC[C@H]2[C@]2(O)O[C@](NC(=O)[C@@H]3C=C4c5cccc6[nH]cc(c56)C[C@H]4N(C)C3)(C(C)C)C(=O)N12 [Ergocryptine-alpha] | −0.2816 |  |
| CC(C(=O)O)c1ccc(C(=O)c2cccs2)cc1 (stereo not shown) [Suprofen] | −0.7501 |  |
| N[C@@H](Cc1cc(I)c(Oc2cc(I)c(O)c(I)c2)c(I)c1)C(=O)O [Thyroxine (L)] | 0.1955 |  |
| C[C@H]1O[C@@H](O[C@H]2[C@@H](O)C[C@H](O[C@H]3[C@@H](O)C[C@H](O[C@H]4CC[C@@]5(C)[C@H](CC[C@@H]6[C@@H]5C[C@@H](O)[C@]5(C)[C@@H](C7=CC(=O)OC7)CC[C@]65O)C4)O[C@@H]3C)O[C@@H]2C)C[C@H](O)[C@@H]1O [Digoxin] | −0.815 |  |
| Cl.N=C(N=C(N)N)N1CCOCC1 [Moroxidine hydrochloride] | 0.05075 |  |
| CC[C@H]1OC(=O)[C@H](C)[C@@H](O[C@H]2C[C@@](C)(OC)[C@@H](O)[C@H](C)O2)[C@H](C)[C@@H](O[C@@H]2O[C@H](C)C[C@H](N(C)C)[C@H]2O)[C@](C)(O)C[C@@H](C)/C(=N\OCOCCOC)[C@H](C)[C@@H](O)[C@]1(C)O [Roxithromycin] | −1.026 |  |
| CN1CCc2cc3c(cc2[C@H]1[C@@H]1OC(=O)c2c1ccc1c2OCO1)OCO3 [Bicuculline (+)] | −0.5556 |  |
| Cc1cc2cc3c(C)cc(=O)oc3c(C)c2o1 [Trioxsalen] | 1.359 |  |
| COc1ccc(Cl)cc1C(=O)NCCc1ccc(S(=O)(=O)NC(=O)NC2CCCCC2)cc1 [Glibenclamide] | 0.3112 |  |
| CCN(CC)CCOC(=O)C(Cc1cccc2ccccc12)CC1CCCO1 (stereo not shown) [Nafronyl oxalate] | 0.6546 |  |
| CN1CCc2c(c3ccccc3n2Cc2ccccc2)C1.O=S(=O)(O)c1cccc2c(S(=O)(=O)O)cccc12 [Mebhydroline 1,5-naphtalenedisulfonate] | 0.4999 |  |
| CO[C@H]1/C=C/O[C@@]2(C)Oc3c(C)c(O)c4c(c3C2=O)C2=NC3(CCN(CC(C)C)CC3)NC2=C(NC(=O)/C(C)=C\C=C\[C@H](C)[C@H](O)[C@@H](C)[C@@H](O)[C@@H](C)[C@H](OC(C)=O)[C@@H]1C)C4=O [Rifabutin] | 1.521 |  |
| CC1CC(OC(=O)C(O)c2ccccc2)CC(C)(C)N1C (stereo not shown) [Eucatropine hydrochloride] | 0.9133 |  |
| C[C@@H]1NC(=O)NC1=O [Methylhydantoin-5-(L)] | −0.97 |  |
| CN(C)[C@@H]1C(O)=C(C(N)=O)C(=O)[C@@]2(O)C(O)=C3C(=O)c4c(O)ccc(Cl)c4[C@@](C)(O)[C@H]3C[C@@H]12 [Chlortetracycline hydrochloride] | −0.5479 |  |
| CCCCN1CCCCC1C(=O)Nc1c(C)cccc1C (stereo not shown) [Bupivacaine hydrochloride] | 0.0187 |  |
| CC1(C)[C@@H](OC(=O)CCC(=O)O)CC[C@]2(C)[C@H]3C(=O)C=C4[C@@H]5C[C@@](C)(C(=O)O)CC[C@]5(C)CC[C@@]4(C)[C@]3(C)CC[C@@H]12 [Carbenoxolone disodium salt] | −1.2656 |  |
| O=C1C(O)=C([C@H]2CC[C@H](c3ccc(Cl)cc3)CC2)C(=O)c2ccccc21 [Atovaquone] | 0.629 |  |

| Compound | Z-score [1] | further results |
| --- | --- | --- |
| Tropicamide | 0.5083 |  |
| Nc1ncnc2c1ncn2[C@@H]1O[C@H](CO)[C@@H](O)[C@@H]1O [Vidarabine] | −0.443 |  |
| Verteporfin | −0.2331 |  |
| CN(N=O)C(=O)N[C@H]1C(O)O[C@H](CO)[C@@H](O)[C@@H]1O (mixture of isomers) [Streptozotocin] | 0.0088 |  |
| CNCCC=C1c2ccccc2CCc2ccccc21 [Nortriptyline hydrochloride] | −1.28 |  |
| C[N+]1(CCCCC[N+]2(C)CCCC2)CCCC1.O=C([O-])C(O)C(O)C(=O)O.O=C([O-])C(O)C(O)C(=O)O [Pentolinium bitartrate] | −0.9629 |  |
| COc1ccc(C(=O)c2ccccc2O)c(O)c1 [Dioxybenzone] | −1.6584 |  |
| Cc1cc(C)nc(NS(=O)(=O)c2ccc(N)cc2)n1 [Sulfamethazine sodium salt] | 1.431 |  |
| Clc1ccc(C(Cn2ccnc2)OCc2csc3c(Cl)cccc23)c(Cl)c1 (stereo not shown) [Sertaconazole nitrate] | −0.4658 | Rank in normalized ORO score from screen (glycolytic switch compounds): 464 |
| Isoetharine mesylate salt | −0.7902 |  |
| CC(=O)N1CCN(c2ccc(OCC3COC(Cn4ccnc4)(c4ccc(Cl)cc4Cl)O3)cc2)CC1 (stereo not shown) [Ketoconazole] | 1.224 |  |
| O=C(O)c1cn(C2CC2)c2cc(N3CCNCC3)c(F)cc2c1=O [Ciprofloxacin hydrochloride] | −1.3212 |  |
| CC(C)c1cccc(C(C)C)c1O [Propofol] |  | Z-score: −0.9649 |
| O=C(NCCNCC(O)COc1ccc(O)cc1)N1CCOCC1 (stereo not shown) [Xamoterol hemifumarate] | −0.1402 |  |
| COc1ccc2[nH]cc(CCNC(C)=O)c2c1 [Melatonin] | 0.08162 |  |
| CS(=O)(=O)c1ccc([C@@H](O)[C@@H](CF)NC(=O)C(Cl)Cl)cc1 [Florfenicol] | 31.4352 |  |
| COc1cc2c(cc1OC)C(C)NCC2.Cl (stereo not shown) | 0.4756 |  |
| COc1cc2nc(N3CCN(C(=O)C4CCCO4)CC3)nc(N)c2cc1OC (stereo not shown) [Terazosin hydrochloride] | −0.0723 |  |
| COc1ccc(Cc2nccc3cc(OC)c(OC)cc23)cc1OC [Papaverine hydrochloride] | 9.542 |  |
| CC(=O)[C@H]1CC[C@H]2[C@@H]3C=CC4=CC(=O)CC[C@@]4(C)[C@@H]3CC[C@]12C [Dydrogesterone] | −0.7044 |  |
| Cc1c(C)c2c(c(C)c1O)CC[C@@](C)(CCC[C@H](C)CCC[C@H](C)CCCC(C)C)O2 [Tocopherol (R,S)] |  | Z-score: −1.721 |
| CC(=C(CCO)SSCC1CCCO1)N(C=O)Cc1cnc(C)nc1N (stereo in doubt) [Fursultiamine Hydrochloride] |  | Z-score: −0.696 |
| CCn1cc(C(=O)O)c(=O)c2cc(F)c(N3CCNC(C)C3)c(F)c21 (stereo not shown) [Lomefloxacin hydrochloride] | 0.00477 |  |
| COc1ccc([C@@H]2Sc3ccccc3N(CCN(C)C)C(=O)[C@@H]2OC(C)=O)cc1 [Diltiazem hydrochloride] | −0.974 |  |

From patent US9393221B2, “Methods and compounds for reducing intracellular lipid storage” (THE GENERAL HOSPITAL CORPORATION, priority 2011, dated 2016)
